Entries after “also recorded” stand apart in the source; their conditions may differ.
Assays:
Assay type in all cases: cell-based, Saccharomyces cerevisiae
[1] = test system: RE700A i PPMA1-HXT7 (ICFP); test: Growth inhibition of ICFP by 2-DG; conditions: 20 h 28° C., maltose, in percent of growth of RE700A
Protocol: (B) RE700A, ICFP and IT[PDR] were incubated 20 h at 28° C. with maltose (2% (w/v)) as the sole carbon source and the indicated 2-DG concentrations. The optical density was measured at 600 nm every 15 minutes and the integral under the growth curve is calculated. Inhibition of growth of ICFP and IT[PDR] is shown in percent of growth of RE700A. Growth of ICFP was inhibited by 15% at 0.01% (w/v) 2-DG, by 74% at 0.03% (w/v) 2-DG, by 80% at 0.05% (w/v) 2-DG and by 83% at 0.1% (w/v) 2-DG. Growth of IT[PDR] was inhibited by 21% at 0.01% (w/v) 2-DG, by 79% at 0.03% (w/v) 2-DG, by 88% at 0.05% (w/v) 2-DG and by 96% in 0.1% (w/v) 2-DG.
Strain growth: The growth of the strains in liquid medium was determined by measuring the optical density at 600 nm. To obtain growth curves, measurements were performed every 15 min. Alternatively, start and endpoint (after 12-16 h) measurements were carried out.

[2] = test system: RE700A Δpdr1,pdr3 tok1::PPDR5-HXT7; test: Growth inhibition of RE700A Δpdr1,pdr3 tok1::PPDR5-HXT7 by 2-DG; conditions: RE700A Δpdr1,pdr3 tok1::PPDR5-HXT7, up to a 2-DG concentration of 0.03% (w/v)
Protocol: (A) Growth inhibition of RE700A i PPDR5-HXT7 (IT[PDR]), RE700A Δpdr1 tok1::PPDR5-HXT7, RE700A Δpdr3 tok1::PPDR5-HXT7 and RE700A Δpdr1,pdr3 tok1::PPDR5-HXT7 at increasing 2-DG concentrations. RE700A i PPDR5-HXT7 (IT[PDR]), RE700A Δpdr1 tok1::PPDR5-HXT7, RE700A Δpdr3 tok1::PPDR5-HXT7 and RE700A Δpdr1,pdr3 tok1::PPDR5-HXT7 were incubated 20 h at 28° C. with Maltose (2% (w/v)) as the sole carbon source and 2-DG concentrations as indicated. The optical density was measured at 600 nm every 15 minutes and the integral under the growth curve was calculated. Inhibition of growth caused by 2-DG is shown in percent. The growth of the strain RE700A tok1::PPDR5-HXT7 (IT[PDR]) was inhibited by 50% at 0.02% (w/v) 2-DG. Growth of the strains RE700A Δpdr1 tok1::PPDR5-HXT7 and RE700A Δpdr3 tok1::PPDR5-HXT7 was inhibited by 50% at 0.026% (w/v) 2-DG.
All strains expressing HXT7 were tested for sensitivity to 2-DG. The strains expressing GFP under the control of PPDR5 were additionally analysed for GFP fluorescence in comparison to RE700Ae PPDR5-GFP (strain CQ[PDR]).

[3] = test system: RE700A Δpdr3 tok1::PPDR5long-HXT7; test: Growth of RE700A Δpdr3 tok1::PPDR5long-HXT7 in the presence of 2-DG; conditions: RE700A Δpdr3 tok1::PPDR5long-HXT7, 20 h 28° C.
Protocol: (B) Relative growth of RE700A tok1::PPDR5long-HXT7, RE700A Δpdr1 tok1::PPDR5long-HXT7, RE700A Δpdr3 tok1::PPDR5long-HXT7 and RE700A Δpdr1,3 tok1::PPDR5long-HXT7 in the presence of 2-DG. Cells were incubated for 20 h at 28° C. with 2-DG at different concentrations. […] The standard error of the mean (n=5) is indicated.

[4] = test system: RE700A e PCDR1-HXT7 (ET[CDR1]); test: Growth inhibition of ET[CDR1] by 2-DG; conditions: liquid media, 20 h 28° C., compared to growth in the absence of 2-DG
Protocol: FIG. 6: Growth inhibition of RE700A, ET[CDR1] and ET[CDR2] in the presence of increasing 2-DG concentrations after 20 h incubation at 28° C. for in liquid medium. RE700A, ET[CDR1] and ET[CDR2] were incubated 20 h at 28° C. with maltose (2% (w/v)) as the sole carbon source in the presence of increasing 2-DG concentrations in liquid medium. The optical density was measured at 600 nm semi-continuously every 15 minutes and the integral under the growth curve was calculated. Inhibition of growth is shown in percent compared to growth in the absence of 2-DG. Growth of ET[CDR1] was inhibited by 92% at a 2-DG concentration in liquid media of 0.05% (w/v), by 94% at a 2-DG concentration in liquid media of 0.075% (w/v), by 93% at a 2-DG concentration in liquid media of 0.1% (w/v) and by 95% at a 2-DG concentration of 0.2% (w/v). Growth of ET[CDR2] was inhibited by 50% at a 2-DG concentration in liquid media of 0.05% (w/v), by 70% at a 2-DG concentration in liquid media of 0.075% (w/v), by 70% at a 2-DG concentration in liquid media of 0.1% (w/v) and by 84% at a 2-DG concentration of 0.2% (w/v).
(1) Episomal screening system for inhibitors of PCDR1: S. cerevisiae strain RE700A was transformed with plasmids pY-PCDR1-HXT7 and pY-PCDR1-GFP yielding strains ET[CDR1] and CQ[CDR1] (for details see Examples 1 and 2, for the complete genotype refer to Table 1). The inhibition of growth of ET[CDR1] by 2-DG was tested. The growth of this strain was inhibited to more than 90% at a 2-DG concentration of 0.05% (w/v) (FIG. 6). To screen for inhibitors of the PCDR1, the test strain ET[CDR1] can be incubated in selective YNB medium with 2% (w/v) maltose as the carbon source and 0.05% (w/v) 2-DG. Under these non-permissive conditions the growth of the test strain ET[CDR1] was inhibited when PCDR1 was active (FIG. 6).

## O=CC[C@@H](O)[C@H](O)[C@H](O)CO [2-DG, 2-deoxy-glucose]
[1]; 0.01% (w/v) 2-DG
  Inhibition of growth: 15%
[1]; 0.03% (w/v) 2-DG
  Inhibition of growth: 74%
[1]; 0.05% (w/v) 2-DG
  Inhibition of growth: 80%
[1]; 0.1% (w/v) 2-DG
  Inhibition of growth: 83%
[2]
  Growth inhibition / 2-DG sensitivity: did not show significant 2-DG sensitivity; also recorded: not significantly inhibited
[3]
  2-DG concentration for 50% growth inhibition: 0.029 % (w/v)
[4]; 0.075% (w/v) 2-DG
  Inhibition of growth: 94%
[4]; 0.1% (w/v) 2-DG
  Inhibition of growth: 93%
[4]; 0.2% (w/v) 2-DG
  Inhibition of growth: 95%

— patent US9121026B2 (priority 2004, dated 2015)
